In publication PMC4471590 (Chemistry (Weinheim an Der Bergstrasse, Germany), 2015):

Target: LytA239–252 (Streptococcus pneumoniae, UniProt P06653)
Assay: near-UV CD titration, ellipticity at […] nm
Assay type: binding

For `C[N+](C)(C)CCO` [choline], which Kd is on record?
Its Kd is 80 ± 10 mM.
